The text below walks through data of US4032659A (priority 1975, dated 1977).

Data set [1] has as its system Influenza B Massachusetts virus. The experiment in a line: Chemoprophylaxis of Influenza B Massachusetts virus infection in mice. It is filed as in vivo, mouse. Conditions: oral. On the procedure: The activity of four compounds on Influenza B Mass. was tested in mice.
A portion of a commercially available sample of amantadine was recrystallized from isopropanol. The activity of the material against Influenza B Mass. was tested for the sample as obtained, the recrystallized portion, and the mother liquor obtained from recrystallizing the portion.

The test system of data set [2] is Influenza Ann Arbor virus. The experiment in a line: Chemoprophylaxis of Influenza Ann Arbor (A1) virus infection in mice. The format is in vivo, mouse.
Setting [3] is: subcutaneous, total dose .003 μg.

With `NC12CC3CC(CC(C3)C1)C2` [Commercial amantadine, amantadine, reference compound], the “No. animals surviving after 11 days” value in data set [1] (total dose 60 ng) worked out at 3; in data set [1] (total dose 600 ng), 3; in data set [1] (total dose 6 μg) it was 7; in data set [1] (total dose 60 μg), 3; in data set [1] (total dose 600 μg), 5; in data set [1] (total dose 6 mg) it was 4. The Survivors in data set [1] (total dose 60 ng) is listed as 0; in data set [1] (total dose 600 ng) it was 3; in data set [1] (total dose 6 μg) it was 5; in data set [1] (total dose 60 μg), 2; in data set [1] (total dose 600 μg), 5; in data set [1] (total dose 6 mg), 2.
As to `NC(=S)NN=C1CCCCC1` [Cyclohexanone, thiosemicarbazone], the “No. animals surviving after 11 days” value was 7 in data set [1] (total dose 5pg); 4 in data set [1] (total dose 50pg); 2 in data set [1] (total dose 500pg); 3 in data set [1] (total dose 5ng); 7 in data set [1] (total dose 50ng); 2 in data set [1] (total dose 500ng). The “No. animals surviving when 16/20 of controls are dead” value in data set [1] (total dose 5pg) is 5; in data set [1] (total dose 50pg), 3; in data set [1] (total dose 500pg), 2; in data set [1] (total dose 5ng), 2; in data set [1] (total dose 50ng), 7; in data set [1] (total dose 500ng) it was 1. Further, the Survivors in data set [1] (total dose 5pg) is 5; in data set [1] (total dose 50pg), 2; in data set [1] (total dose 500pg) it was 2; in data set [1] (total dose 5ng), 2; in data set [1] (total dose 50ng), 5; in data set [1] (total dose 500ng), 1.
As to `NC12CC3CC(CC(C3)C1)C2` [Recrystallized amantadine, amantadine, reference compound], the “No. animals surviving after 11 days” value in data set [1] (total dose 60 ng) was 4; in data set [1] (total dose 600 ng), 3; in data set [1] (total dose 6 μg), 5; in data set [1] (total dose 60 μg), 5; in data set [1] (total dose 600 μg), 3; in data set [1] (total dose 6 mg) it was 6. For the same molecule, the Survivors was 2 in data set [1] (total dose 60 ng); 3 in data set [1] (total dose 600 ng); 5 in data set [1] (total dose 6 μg); 2 in data set [1] (total dose 60 μg); 2 in data set [1] (total dose 600 μg); 4 in data set [1] (total dose 6 mg).
As for `NC(N)=NN=Cc1c(Cl)cccc1Cl` [[(2,6-dichlorobenzylidine)amino]guanidine acetate], the “No. animals surviving after 6 days” value in data set [2] (oral, total dose 30 pg) is given as 4; in data set [2] (oral, total dose 300 pg) it was 2; in data set [2] (oral, total dose 3 ng) it was 4; in data set [2] (oral, total dose 30 ng), 1; in data set [2] (oral, total dose 300 ng), 1; in data set [2] (oral, total dose 3 μg), 2. The “No. animals surviving after 6 days” value in data set [2] (oral, total dose 30 μg) came to 3; in data set [2] (oral, total dose 300 μg) it was 1. Moreover, the Survivors in data set [2] (oral, total dose 30 pg) worked out at 0; in data set [2] (oral, total dose 300 pg), 1; in data set [2] (oral, total dose 3 ng) it was 0; in data set [2] (oral, total dose 30 ng), 0; in data set [2] (oral, total dose 300 ng), 0; in data set [2] (oral, total dose 3 μg), 0. The Survivors in data set [2] (oral, total dose 30 μg) amounted to 0; in data set [2] (oral, total dose 300 μg), 0. Moreover, the Toxicity entry in data set [2] (oral, total dose 3 mg) was “Toxic”.
In the case of `CCOC(=O)CC(C)=NNC(N)=S` [acetoacetic acid, ethyl ester, thiosemicarbazone], the “No. animals surviving after 5 days” value in data set [2] (oral, total dose 30 pg) is listed as 8; in data set [2] (oral, total dose 300 pg), 4; in data set [2] (oral, total dose 3 ng), 5; in data set [2] (oral, total dose 30 ng), 5; in data set [2] (oral, total dose 300 ng) it was 4; in data set [2] (oral, total dose 3 μg), 6. The “No. animals surviving after 5 days” value in data set [2] (oral, total dose 30 μg) is reported as 8; in data set [2] (oral, total dose 300 μg), 7; in data set [2] (oral, total dose 3 mg), 5. Also, the Survivors in data set [2] (oral, total dose 30 pg) came to 0; in data set [2] (oral, total dose 300 pg), 0; in data set [2] (oral, total dose 3 ng), 0; in data set [2] (oral, total dose 30 ng), 0; in data set [2] (oral, total dose 300 ng), 0; in data set [2] (oral, total dose 3 μg), 0. The Survivors in data set [2] (oral, total dose 30 μg) turned out to be 0; in data set [2] (oral, total dose 300 μg), 0; in data set [2] (oral, total dose 3 mg) it was 0.
`CC(C)=NNC(N)=S` [acetone, thiosemicarbazone]: the “No. animals surviving after 6 days” value in data set [2] (oral, total dose 30 pg) is given as 3; in data set [2] (oral, total dose 300 pg), 2; in data set [2] (oral, total dose 3 ng), 2; in data set [2] (oral, total dose 30 ng) it was 2; in data set [2] (oral, total dose 300 ng), 3; in data set [2] (oral, total dose 3 μg) it was 5. Also, the “No. animals surviving after 6 days” value is listed as 2 in data set [2] (oral, total dose 30 μg) and 3 in data set [2] (oral, total dose 300 μg). Further, the Survivors turned out to be 1 in data set [2] (oral, total dose 30 pg); 0 in data set [2] (oral, total dose 300 pg); 0 in data set [2] (oral, total dose 3 ng); 0 in data set [2] (oral, total dose 30 ng); 0 in data set [2] (oral, total dose 300 ng); 0 in data set [2] (oral, total dose 3 μg). Moreover, the Survivors is given as 0 in data set [2] (oral, total dose 30 μg) and 0 in data set [2] (oral, total dose 300 μg).
For `N=C(N)NN` [aminoguanidine, bicarbonate], the Survivors is on record as 0 in data set [1] (total dose 40pg); 0 in data set [1] (total dose 4ng); 1 in data set [1] (total dose 40ng); 1 in data set [1] (total dose 400ng); 1 in data set [1] (total dose 4μg).
Regarding `N=C(N)NN` [aminoguanidine], the “No. animals surviving after 7 days” value is on record as 6 in data set [2] (oral, total dose 300 pg); 8 in data set [2] (oral, total dose 3 μg); 8 in data set [2] (oral, total dose 30 μg); 6 in data set [2] (subcutaneous, total dose 3 μg); 8 in data set [2] (subcutaneous, total dose .0003 μg); 8 in data set [2] (setting [3]). The Survivors in data set [2] (oral, total dose 300 pg) turned out to be 1; in data set [2] (oral, total dose 3 ng) it was 1; in data set [2] (oral, total dose 30 ng) it was 2; in data set [2] (oral, total dose 300 ng) it was 4; in data set [2] (oral, total dose 3 μg) it was 3; in data set [2] (oral, total dose 30 μg), 5. Further, the Survivors in data set [2] (subcutaneous, total dose 3 μg) was 2; in data set [2] (subcutaneous, total dose 30 μg), 2; in data set [2] (setting [3]) it was 0; in data set [2] (subcutaneous, total dose .03 μg), 1; in data set [2] (subcutaneous, total dose .3 μg) it was 1. This molecule also displayed a survival in data set [2] (subcutaneous, one dose level) of 50%.
Consider `Cc1ccccc1NC(=S)NN=C1CCCC1` [cyclopentanone, 3-thio-4-o-tolylsemicarbazone], for which the “No. animals surviving after 5 days” value is 6 in data set [2] (oral, total dose 30 pg); 9 in data set [2] (oral, total dose 300 pg); 9 in data set [2] (oral, total dose 3 ng); 9 in data set [2] (oral, total dose 30 ng); 6 in data set [2] (oral, total dose 300 ng); 6 in data set [2] (oral, total dose 3 μg). Besides, the “No. animals surviving after 5 days” value in data set [2] (oral, total dose 300 μg) amounted to 9; in data set [2] (oral, total dose 3 mg), 8. Also, the Survivors in data set [2] (oral, total dose 30 pg) came to 0; in data set [2] (oral, total dose 300 pg), 0; in data set [2] (oral, total dose 3 ng), 0; in data set [2] (oral, total dose 300 ng), 0; in data set [2] (oral, total dose 3 μg), 0; in data set [2] (oral, total dose 30 μg), 0. Besides, the Survivors in data set [2] (oral, total dose 300 μg) was 0; in data set [2] (oral, total dose 3 mg), 0.
